Measurements taken from US5541174A, “Analgesic method” (priority 1995, dated 1996).

Experiments:
[1] = test system: acetic acid-induced writhing mouse pain model; test: Measurement of time of peak activity in the acetic acid-induced writhing mouse pain model; type: in vivo
Description: Groups of 10 ICR male mice (Taisho Pharmaceutical Co. Research Center) were used to study each dose of every compound. […] Number of writhes were counted for each mouse during a period of 10 to 20 min after acetic acid injection. Inhibitory percent was calculated by comparison with the number of writhes in the non-treated control, vehicle-treated, and acetic acid-injected group. The ED50 value and 95% confidence limits were calculated from the inhibitory percent by the method of Litchfield and Wilcoxon.
(§1) All drugs were suspended with 5% gum arabic in saline solution or wetted with enough propylene glycol to give a final concentration of 4% propylene glycol and the wetted solid suspended in 1.4% polyvinyl alcohol in saline.

[2] = test system: acetic acid-induced writhing mouse pain model; test: Naloxone reversal of analgesia in the acetic acid-induced writhing mouse pain model; type: in vivo; conditions: for % Inhibition: 555 umol/kg s.c.
Description: Groups of 10 ICR male mice (Taisho Pharmaceutical Co. Research Center) were used to study each dose of every compound. Ligands or complexes were administered orally or subcutaneously in 0.1 ml of vehicle per 10 g of body weight 30 minutes before the intrapertioneal injection of 0.1 ml of 0.7% acetic acid solution per 10 g of body weight. Number of writhes were counted for each mouse during a period of 10 to 20 min after acetic acid injection. Inhibitory percent was calculated by comparison with the number of writhes in the non-treated control, vehicle-treated, and acetic acid-injected group. The ED50 value and 95% confidence limits were calculated from the inhibitory percent by the method of Litchfield and Wilcoxon.
as §1
NaloxoneHCL (3 umol/kg. i.v., in saline, Endo Lab.) was administered 5
min. before acetic acid injection.

Compound | Inhibition % ([1]; 555 umol/kg s.c., 30 min) | Inhibition % ([1]; 555 umol/kg s.c., 60 min) | Inhibition % ([1]; 555 umol/kg s.c., 120 min) | Inhibition % ([1]; 555 umol/kg s.c., 180 min) | duration of analgesic effect ([1]; Table VII) | % Inhibition ([2]; with Naloxone HCl 3 umol/kg i.v.) | % Inhibition ([2]; without naloxone) | reduction of induced analgesia by Naloxone ([2]; Table VIII) | Inhibition % ([1]; 584 umol/kg s.c., 30 min) | Inhibition % ([1]; 584 umol/kg s.c., 60 min) | Inhibition % ([1]; 584 umol/kg s.c., 120 min) | Inhibition % ([1]; 584 umol/kg s.c., 180 min)
CCN(CC)C(=S)[S-].CCN(CC)C(=S)[S-].[Cu+2] [Cu(II)(DDC)2, Bisdiethyldithiocarbamatocopper(II)] | 29% | 42% | 45% | 29% | prolonged duration of analgesic effect | 29% | 45% | reduction |  |  |  | 
CCN(CC)C(=S)[S-].[Na+] [NaDDC, sodium diethyldithiocarbamate, reference compound] |  |  |  |  |  |  |  |  | 48% | 53% | 20% | 18%
